Experiments:
[1] = Liposome import assay (RZ-3 fluorescence); format: physicochemical; conditions: for change of RZ-3 fluorescence with reversed [Zn2+]free gradient: large excess of EDTA outside the liposomes, ZMC1 added subsequently; for shuttling of Zn2+ into liposomes: external [Zn2+]free 10 μM
Experimental: DOPC-liposomes were prepared by film rehydration and extrusion followed by gel filtration and diluted to an OD600=0.06 in buffer. The size distribution of the liposomes was determined by dynamic light scattering (DLS) using a Malvern Zetasizer Nano ZS. Fluorescence measurements were taken on a Horiba Fluoromax-4 spectrofluorimeter in a 5×5 mm quartz cuvette with λex/λcm=550/572 nm for RZ-3 and 490/515 nm for calcein. Initial Zn^2+ import/export was quantified by fitting the first 10-30 s of data after each treatment to a line and converted to units of flux using the following Eqn 1:
[formula] where Ji is the initial flux, ΔF/Δt is the slope of the fit line, Fmax is RZ-3 fluorescence in the presence of saturating Zn^2+ and 1% TritonX-100, Fmin is RZ-3 fluorescence in the presence of excess EDTA and 1% TritonX-100, [RZ3] is the concentration of encapsulated RZ-3, and SA/Vol is the surface area to volume ratio calculated assuming hollow spheres of the mean diameter determined by DLS. Intracellular [Zn^2+]free Imaging TOV112D or HEK293 cells (40,000 cells/well) were plated on either 8-well BD Falcon chambered culture slides (Corning Life Sciences) or 8-chambered #1.5 Nunc Lab-Tek II chambered coverglasses (Thermo Scientific) treated with poly-L-lysine. After 48 h, cells were washed 2×5 m in serum-free media and incubated with 1 μM FZ3-AM for 40 m at 37° C. Cells were then washed 2×5 m in either EBSS/H (−)Ca/Mg or phenol-red free DMEM+10% FBS containing the indicated treatments for 20 m before imaging. For nuclear colocalization, 1 μg/mL Hoechst 33342 was also included. Cells were imaged using a Zeiss LSM510 META NLO confocal microscope equipped with 37° C. environmental control chamber. FZ3 and Hoechst 33342 were excited at 488 nm (argon laser) and 790 nm (Chameleon Ti:sapphire laser), respectively. To determine the kinetics of fluorescence change, each background-subtracted image in the time-lapse series was integrated in ImageJ and normalized to the integrated fluorescence of the first frame after treatment. For quantification of intracellular [Zn^2+]free, each cell was analyzed in the treated, 50 μM PYR/ZnCl2 (1:1), and 100 μM TPEN images by taking the mean fluorescence of an ROI inside the cell subtracted by an ROI immediately outside the cell measured in ImageJ. The [Zn^2+]free for each cell was then calculated by Eqn 2: […]

[2] = system: HEK293 (non-cancer, p53-WT) cells; test: Intracellular [Zn2+]free imaging with FluoZin-3-AM, HEK293; format: cell-based; conditions: for increase of intracellular [Zn2+]free (FZ3-AM fluorescence): HEK293, complete media, confocal microscopy
Experimental: To minimize the potential for Zn^2+ contamination and contributions from poorly defined elements in complete media (e.g. FBS), cells were treated and imaged in Ca^2+ and Mg^2+-free Earle's Balanced Salt Solution supplemented with 10 mM HEPES pH 7.4 (EBSS/H (−)Ca/Mg). Excess ZnCl2 with the Zn^2+ ionophore pyrithione (PYR) was used as a positive control. Excess membrane-permeable Zn^2+ chelator N,N,N′,N′-tetrakis(2-pyridylmethyl)ethane-1,2-diamine (TPEN) was used as a negative control.
To normalize for differential dye loading, cells were then sequentially treated with excess PYR/ZnCl2, imaged, treated with TPEN, and imaged again. PYR/ZnCl2 and TPEN served to saturate and apoize the intracellular FZ3, respectively.
[formula] where Ji is the initial flux, ΔF/Δt is the slope of the fit line, Fmax is RZ-3 fluorescence in the presence of saturating Zn^2+ and 1% TritonX-100, Fmin is RZ-3 fluorescence in the presence of excess EDTA and 1% TritonX-100, [RZ3] is the concentration of encapsulated RZ-3, and SA/Vol is the surface area to volume ratio calculated assuming hollow spheres of the mean diameter determined by DLS. Intracellular [Zn^2+]free Imaging TOV112D or HEK293 cells (40,000 cells/well) were plated on either 8-well BD Falcon chambered culture slides (Corning Life Sciences) or 8-chambered #1.5 Nunc Lab-Tek II chambered coverglasses (Thermo Scientific) treated with poly-L-lysine. After 48 h, cells were washed 2×5 m in serum-free media and incubated with 1 μM FZ3-AM for 40 m at 37° C. Cells were then washed 2×5 m in either EBSS/H (−)Ca/Mg or phenol-red free DMEM+10% FBS containing the indicated treatments for 20 m before imaging. For nuclear colocalization, 1 μg/mL Hoechst 33342 was also included. Cells were imaged using a Zeiss LSM510 META NLO confocal microscope equipped with 37° C. environmental control chamber. FZ3 and Hoechst 33342 were excited at 488 nm (argon laser) and 790 nm (Chameleon Ti:sapphire laser), respectively. To determine the kinetics of fluorescence change, each background-subtracted image in the time-lapse series was integrated in ImageJ and normalized to the integrated fluorescence of the first frame after treatment. For quantification of intracellular [Zn^2+]free, each cell was analyzed in the treated, 50 μM PYR/ZnCl2 (1:1), and 100 μM TPEN images by taking the mean fluorescence of an ROI inside the cell subtracted by an ROI immediately outside the cell measured in ImageJ. The [Zn^2+]free for each cell was then calculated by Eqn 2:
[formula] […] To minimize the effects of outliers the lowest and highest 5% of cells in each series were rejected, and the remaining values averaged to give the value from that experiment. The number of cells analyzed in each trial ranged from 54-163. For nuclear colocalization, treated, PYR/ZnCl2, and TPEN treated images costained with Hoechst 33342 were aligned and each pixel subjected to Eqn. 2 in MATLAB (MathWorks).

H1299 (p53-null) = test: Cell growth inhibition assay, H1299; format: cell-based, human; conditions: three day assay, H1299, FIG. 1
H460 (p53-WT) = test: Cell growth inhibition assay, H460; format: cell-based, human; conditions: three day assay, H460, FIG. 1

SMILES	ability to cross liposomal (or cellular) membranes [1]	change of RZ-3 fluorescence with reversed [Zn2+]free gradient [1]	increase of intracellular [Zn2+]free (FZ3-AM fluorescence) [2]	cell growth inhibition of p53 null cell line (H1299 (p53-null))	cell growth inhibition of p53 wildtype cell line (H460 (p53-WT))	shuttling of Zn2+ into liposomes [1]	also measured
O=C(O)CN(CCN(CC(=O)O)CC(=O)O)CC(=O)O [EDTA]	impermeable	did not cause a significant decrease					
C/C(=N\NC(=S)N1CCC1)c1ccccn1 [ZMC1]	crossed the liposomal membranes	time dependent decrease	increased				steady-state intracellular [Zn2+]free ([2]; HEK293, 1 μM ZMC1 and 0.5 μM ZnCl2 in EBSS/H (−)Ca/Mg): 18.1 ± 4.7 nM; increase of intracellular [Zn2+]free, compound alone ([2]; HEK293, EBSS/H (−)Ca/Mg, ZMC1 alone without ZnCl2): neither cell type showed an increase; increase of intracellular [Zn2+]free, with ZnCl2 ([2]; HEK293, EBSS/H (−)Ca/Mg, ZMC1 and ZnCl2, two ZnCl2 concentrations): time dependent increase
C/C(=N\Nc1nc2ccccc2o1)c1ccccn1 [Example 2, (E)-2-(2-(1-(pyridin-2-yl)ethylidene)hydrazinyl)benzo[d]oxazole]				undisturbed	undisturbed		
C/C(=N\Nc1nc2ccccc2s1)c1ccccn1 [Example 1, (E)-2-(2-(1-(pyridin-2-yl)ethylidene)hydrazinyl)benzo[d]thiazole]				undisturbed	undisturbed		
C/C(=N\NC(=O)N1CCC1)c1ccccn1 [Example A6]			did not			shuttled Zn^2+ into the liposomes	
O=C(O)CN(CC(=O)O)CC(=O)O [NTA]	cannot cross		did not			did not	
